We go through four compounds from patent US11439646B2, “Anti-proliferative agents for treating PAH” (Pfizer Inc., priority 2016, dated 2022).

One assay relates to rat Su5416/Hx PAH model. Put plainly: Rat SuHx (Su5416/hypoxia)-induced PAH model (hemodynamics, histomorphometry, IHC). The assay is classed as in vivo. As to conditions: for lung weight vs vehicle/Su5416/Hx group / vessel-associated Ki67+ cells in the pulmonary vasculature (IHC) / vessel-associated pRb+ cells in the pulmonary vasculature (IHC): days 7 to 28; for MPAP: days 7 to 28, FIG. 4b; for Fulton Index: days 7 to 28, FIG. 4c; for muscularized intra-acinar vessel density relative to vehicle/Su5416/Hx group: days 7 to 28, FIG. 4e; for DPAP: days 7 to 28, FIG. 4i; for heart weight vs vehicle/Su5416/Hx group: days 7 to 28, FIG. 4j; for average vessel wall thickness, intra-acinar and pre-acinar vessels: days 7 to 28, FIG. 4d. As for the experimental part: SuHx-induced Pulmonary Arterial Hypertension: Sprague-Dawley rats were obtained from Charles River Laboratories (200-300 g; vehicle control, n=5; all other groups, n=10). Rats received Semaxinib dissolved in DMSO on day 0, followed by housing in low (13%) oxygen until day 28. Sildenafil (30 mg/kg/dose; BID), Riociguat (10 mg/kg, QD) or Palbociclib (100 mg/kg; QD) was administered in vehicle (0.5% methylcellulose) from days 7-28. Terminal hemodynamic evaluations and necropsy were conducted on day 28 in a manner similar to the MCT study.
Hemodynamic measurements Su/Hx study: On day 28, animals were anesthetized via intramuscular injection of ketamine/xylazine (80/10 mg/kg). A Millar catheter was inserted into the pulmonary artery and pulmonary pressure and hemodynamics were measured as described by Stringer et al., (1981) Catheterization of the pulmonary artery in the closed-chest rat. J. Appl. Physiol. 51, 1047-1050. Hemodynamic values were calculated using the NOTOCORD-Hem software (NOTOCORD, Inc., Croissy sur Sienne, France) (CorDynamics).
(§1) Measurement of RV hypertrophy. After collection of the heart at necropsy, the atria and great vessels were removed. The RV was separated from the LV and S. The wet weights of the RV and LV+S were measured to calculate the Fulton Index.
(§2) Tissue preparation. Under anesthesia, the animals were exsanguinated, and the pulmonary circulation flushed with oxygenated (animals from Example 3 [MCT]) or heparizined (animals from Example 4 [Su5416/Hx]) saline. Trachea, lungs, and heart were removed intact from thoracic cavity and placed in ice-cold saline. Right lung lobes were removed, weighed, and immediately flash frozen in liquid nitrogen. A 10 mL syringe filled with fixative (10% NBF) with attached blunt tip needle (20 g) was used to inflate the left lung lobe and the airway was tied off to keep it consistently expanded. The left lung was then immersion fixed in 10% NBF for 48 hrs and then transferred to 70% EtOH for ≤5 days.
(§3) Histomorphometric analysis. Three, 3-5 μm thick, transverse sections of the left lung lobe were used for histomorphometric analysis. Overall disease severity scores were determined by light microscopic evaluation of hematoxylin and eosin (H&E)-stained lung sections by a board-certified veterinary pathologist. Scores ranged from 0 (absent), 1 (minimal), 2 (mild), 3 (moderate), 4 (marked) to 5 (severe) and were assigned according to the approximate percentage of the tissue affected by the tissue changes (inflammatory, degenerative, vascular and/or proliferative) characteristic of the PAH model. Average vessel wall thickness was evaluated using lung sections prepared with a modified Verhoeff-van Gieson elastin stain. Image analysis was performed using random field sampling (Visiopharm newCAST) of 10% of tissue area with observer-assisted identification of intra-acinar and pre-acinar vessels and application of a nucleator probe to measure vessel wall thickness. Fully muscularized intra-acinar vessel density was evaluated in a similar manner using dual αSMA/Ki67 IHC-stained sections and observer-assisted counting of ≥70% muscularized (i.e. SMA^+), transversely sectioned, ≤50 μm external diameter, intra-acinar vessels with an identifiable lumen. Vessel-associated Ki67^+ and pRb^+ cells were counted in αSMA/Ki67 IHC-and CD31/pRb IHC-stained lung sections, respectively, using random field sampling of 10% of tissue area and observer-assisted identification of Ki67^+ or pRb^+ cells associated with the walls (i.e. in the intima or media) of vessels 100 μm external diameter.
Immunohistochemistry. Dual α-SMA/Ki67 nuclear antigen: All IHC steps were performed on 3 μm-thick, formalin-fixed, paraffin-embedded (FFPE) sections on Leica Bond Rx automated immunohistochemistry stainer. The instrument was programmed to bake and dewax the slides. […]

The next assay concerns phospho-Rb (Ser807/811). Briefly: In-cell western analysis of Rb phosphorylation in human PASMCs. The assay is classed as cell-based. As to conditions: Homo sapiens, PASMC; 10% FBS; N = 6; FIG. 2c; read-out: Average IC50 (nM), inhibition of phosphorylation of Rb in hPASMCs. As for the experimental part:
In-cell western analysis. Primary PASMCs from normal human subjects were cultured and serum-starved as described above. Cells were first pre-incubated with different concentrations of palbociclib for 60 minutes, and then either 5% FBS or 10% FBS or 30 ng/ml PDGF-BB was added to stimulate cell proliferation and Rb phosphorylation. The effect of Palbociclib on Rb phosphorylation was evaluated 24 h later, using in-cell western assay according to the manufacturer's instructions (Li-Cor Biosciences, Lincoln, Nebr., USA). Phosphorylated Rb was measured using a rabbit monoclonal antibody anti-phospho-Rb (Ser807/811) (Cell Signaling Technology, Inc., Danvers, Mass., USA), followed by detection with IRDye 800CW infrared fluorescent dye-labeled goat anti-rabbit secondary antibody. Actin levels were measured using mouse anti-actin monoclonal antibodies (pan Ab-5) (Fisher Scientific Pittsburgh, Pa., USA; Sigma Aldrich, St. Louis, Mo., USA), and followed by detection with IRDye 680RD-labeled goat anti-mouse secondary antibody. See FIG. 2a where 5% FBS was used, FIG. 2b where PDGF-BB was used, and FIG. 2c where 10% FBS was used.

In the next assay the test system is hPAAF. Put plainly: EdU cell proliferation assay, hPAAF. The assay is classed as cell-based. The note with it: Homo sapiens, 5% FBS, N = 6, FIG. 1f, read-out: hPAAF IC50 (nM), inhibition of proliferation. As for the experimental part:
(§4) Alternatively, rather than using BrdU, EdU (5-ethynyl-2′-deoxyuridine) can be used. Cells were first pre-incubated with different concentrations of the CDK inhibitor for 30 minutes, and then 5% FBS was added to stimulate cell proliferation. Cells were maintained for 24 h before the proliferation rate was evaluated using EDU Click-iT EdU Alexa Fluor® 647 HCS Assay (Thermofisher Scientific, USA). EdU was added to the medium 16 h before the quantification of EdU incorporation. Proliferation was quantified by scanning the 96-well plates using automated high content imaging platform equipped with appropriate fluorescence microscopic filters for DAPI (4′,6-Diamidino-2-Phenylindole) or Hoechst stain and Cyanine5 dyes as part of the Click-iT assay. Proliferating EdU positive cells detected at Cyanine5 were quantified and normalized to total cell number per well where the total cell number per cell was identified by DAPI or Hoechst signal. The % effect was then calculated:
(§5) The average (avg) amount (amt) of proliferating cells per concentration of CDK inhibitor with FBS present.
(§6) The minimum amount of proliferation (min amt of prolif'n) is based on cell numbers in the wells where FBS is not added and no CDK inhibitor is present.
(§7) The maximum amount of proliferation (max amt of prolif'n) is based on cell numbers in the wells where FBS is added and no CDK inhibitor is present.

For the next assay, the system named is hPASMC. Put plainly: EdU cell proliferation assay, hPASMC. The assay is classed as cell-based. The note with it: Homo sapiens, 5% FBS, N = 6, FIG. 1e, read-out: hPASMC IC50 (nM), inhibition of proliferation. Here is the method: as §4, §5, §6, §7
A further assay deals with rPASMC. Put plainly: EdU cell proliferation assay, rPASMC. The assay is classed as cell-based. As to conditions: Rattus norvegicus, 5% FBS, N = 6, FIG. 1g, read-out: rPASMC IC50 (nM), inhibition of proliferation. Here is the method: as §4, §5, §6, §7
Assay [1] concerns Rat MCT-induced PAH Model. Put plainly: Rat MCT-induced PAH model (hemodynamics, histomorphometry, IHC). The assay is classed as in vivo. Here is the method: Rat MCT-induced PAH Model: Male Sprague-Dawley rats (Charles River Laboratories) (260-280 g; vehicle control group, n=6; all other groups, n=15) received MCT (50 mg/kg, SC; 1 ml/kg BVV) dissolved in vehicle (33.3% 1 N HCl, 14.8% 1 N NaOH, 52.2% diH2O) or vehicle alone on day 0. Sildenafil (50 mg/kg/dose; BID) was administered (5 ml/kg, PO) either prophylactically from days 0-28 or therapeutically from days 14-28. Palbociclib (100 mg/kg; QD) was administered therapeutically (days 14-28). Both sildenafil and palbociclib were resuspended in vehicle (0.5% methylcellulose) and administered orally (5 ml/kg). On day 28, animals were anesthetized via isoflurane, hemodynamic parameters were evaluated, and tissues harvested after euthanasia.
Hemodynamic measurements—monocrotaline (MCT) study: On day 28, animals were anesthetized via 2% isofluorane in positive pressure ventilator. Pulmonary hemodynamics were measured using a pre-calibrated pressure transducer in isoflurane positive-pressure ventilated animals. Steady-state pulmonary and systemic arterial pressures were measured using a Millar Solid State Mikro-tip catheter (Millar Instruments, Houston, Tex.) introduced to the pulmonary arterial trunk at the level of the aortic arch via the right carodid artery. Hemodynamic values were automatically calculated by the physiological data acquisition system, ADI Chart (ADI Instruments, Colorado Springs, Colo.) (Plato BioPharma).
as §1, §2, §3
Immunohistochemistry. […]

The mark [2] stands for this setting: day 0-28, score scale 0-5, FIG. 3g.

As to `COC(=O)N(C)c1c(N)nc(-c2nn(Cc3ccccc3F)c3ncccc23)nc1N` [Riociguat], in the assay with rat Su5416/Hx PAH model, the “lung weight vs vehicle/Su5416/Hx group” value is recorded as “no change”, the “vessel-associated Ki67+ cells in the pulmonary vasculature (IHC)” value is given as “no significant beneficial effect”, the “vessel-associated pRb+ cells in the pulmonary vasculature (IHC)” value was “no significant beneficial effect” and the MPAP result is recorded as “significantly reduced”. For the same compound, in the assay with rat Su5416/Hx PAH model, the “Fulton Index” value was “only a slight reduction”, the “muscularized intra-acinar vessel density relative to vehicle/Su5416/Hx group” value was “not statistically significantly different”, the DPAP result is “significantly reduced” and the “heart weight vs vehicle/Su5416/Hx group” value is “no change”. Also, in the assay on rat Su5416/Hx PAH model, the “average vessel wall thickness, intra-acinar and pre-acinar vessels” value was “not”.

On to `CCN1CCN(Cc2ccc(Nc3ncc(F)c(-c4cc(F)c5nc(C)n(C(C)C)c5c4)n3)nc2)CC1` [Abemaciclib, 2-pyrimidinamine, N-(5-((4-ethyl-1-piperazinyl)methyl)-2-pyridinyl)-5-fluoro-4-(4-fluoro-2-methyl-1-(1-methylethyl)-1H-benzimidazol-6-yl)], for which the IC50 with phospho-Rb (Ser807/811) is 262 nM; with hPAAF, 1.2 nM; in the assay on hPASMC, 6.5 nM; in the assay on rPASMC, 13 nM.

Consider `CCCc1nn(C)c2c(=O)[nH]c(-c3cc(S(=O)(=O)N4CCN(C)CC4)ccc3OCC)nc12` [Sildenafil], for which, in the assay with rat Su5416/Hx PAH model, the “lung weight vs vehicle/Su5416/Hx group” value is given as “no change”, the “vessel-associated Ki67+ cells in the pulmonary vasculature (IHC)” value is listed as “no significant beneficial effect”, the “vessel-associated pRb+ cells in the pulmonary vasculature (IHC)” value is reported as “no significant beneficial effect” and the MPAP result is given as “significantly reduced”. Moreover, in the assay on rat Su5416/Hx PAH model, the “Fulton Index” value is given as “only a slight reduction”, the “muscularized intra-acinar vessel density relative to vehicle/Su5416/Hx group” value is “not statistically significantly different”, the DPAP result is reported as “significantly reduced” and the “heart weight vs vehicle/Su5416/Hx group” value is “no change”. In addition, the “average vessel wall thickness, intra-acinar and pre-acinar vessels” value in the assay with rat Su5416/Hx PAH model was “not”. Besides, the SPAP result in the assay on rat Su5416/Hx PAH model (days 7 to 28, FIG. 4h) is “significantly reduced”. The “density of fully muscularized intra-acinar vessels (αSMA staining)” value in assay [1] (day 0-28, FIG. 3e) is “effective”. Further, in assay [1] (day 0-28, FIG. 3d), the “average vessel wall thickness relative to vehicle/MCT group” value worked out at 0.76 x MCT. For the same compound, in assay [1] (setting [2]), the “disease severity scores, mean” value was 2.5 and the “disease severity scores, range” value is 1-4. The “average vessel wall thickness (elastin staining), intra-acinar and pre-acinar pulmonary arteries, relative to vehicle/MCT group” value in assay [1] (day 14-28, FIG. 3d) is listed as “little effect”. Besides, the “PAH-related increase in MPAP” value in assay [1] (dosed prophylactically day 0-28, sildenafil 50 mg/kg/dose PO BID, FIG. 3b) was “significantly reduced”. Also, in assay [1] (prophylactic day 0-28, FIG. 3c), the “PAH-related increase in Fulton Index” value is given as “significantly reduced”. Further, in assay [1] (prophylactic day 0-28, FIG. 3i), the “PAH-related increase in DPAP” value is on record as “significantly reduced”. The “PAH-related increase in heart weight” value in assay [1] (prophylactic day 0-28, FIG. 3j) is listed as “significantly reduced”. In addition, in assay [1] (prophylactic day 0-28, FIG. 3h), the “PAH-related increase in SPAP” value is on record as “significantly reduced”. Also, in assay [1] (therapeutic day 14-28), the DPAP entry was “small and non-significant reduction”; the Fulton Index result was “small and non-significant reduction”; the MPAP result is “small and non-significant reduction”; the SPAP result is “small and non-significant reduction”. In assay [1] (therapeutic day 14-28), the heart weight result was “small and non-significant reduction”.

Regarding `CN(C)C(=O)c1cc2cnc(Nc3ccc(N4CCNCC4)cn3)nc2n1C1CCCC1` [Ribociclib, 7-cyclopentyl-N, N-dimethyl-2-((5-(piperazin-1-yl)pyridin-2-yl)amino)-7H-pyrrolo[2,3-d]pyrimidine-6-carboxamide], the IC50 with phospho-Rb (Ser807/811) was determined as 352 nM; in the assay with hPAAF it was 0.8 nM; in the assay with hPASMC, 0.5 nM; in the assay with rPASMC, 28.6 nM.
